Experimental findings from patent US12285401B2, “Pharmaceutical composition comprising trimebutine or pharmaceutically acceptable salt thereof as an active ingredient for prevention or treatment of cancer” (DAEGU-GYEONGBUK MEDICAL INNOVATION FOUNDATION, priority 2019, dated 2025) are described below.

One may read the GI50 as the concentration giving 50% growth inhibition. Low values mean greater sensitivity of the cells, high ones lower sensitivity of the cells.

The subject of series [1] is A2780-SP cells (ovarian cancer stem cells). Nature of the series: Cell viability assay (Cell-titer Glo), A2780-SP sphere cell viability. It is filed as cell-based. As to conditions: for GI50: A2780-SP ovarian cancer stem cells, 1,500 cells per well, Cell-titer Glo; for viability of A2780-SP cells (ovarian cancer stem cells), result in words: 1500 cells, 7 days, Cell titer Glo. A general note: In ATP-based viability assays light output follows the ATP content of the culture.

In series [2] the test system is A2780 cells (ovarian cancer cells). Nature of the series: Cell viability assay (Cell-titer Glo), A2780 cell viability. Particulars: 3 days. It is filed as cell-based.
The next series deals with β-catenin. In words: β-catenin S552 phosphorylation and translocation experiments in A2780-SP cells. It counts as cell-based. As to conditions: 1 μM or 10 μM, 24 hours. The protocol:
A2780-SP cells (ovarian cancer stem cells) were plated in an ultra-low attachment round bottom 6-well plate (Corning) at the density of 4×10^5 viable cells per well and cultured in a cancer stem cell medium (CM). The cancer stem cell medium is composed of a neurobasal medium supplemented with 20 ng/ml of bFGF, 10 ng/ml of EGF, 2.5 ng/ml of amphotericin B, HEPES, Glutamax and B27. On the next day of culture, the cells were treated with the compound at the concentration of 1 μM or 10 μM for 24 hours. The control group was treated in the same manner as above for 24 hours with a neurobasal medium (NBM) and a cancer stem cell medium (CM) containing DMSO.
To measure the degree of phosphorylation of β-catenin S552, 100 μl of RIPA buffer (containing 1× protease inhibitor and phosphatase inhibitor) was added to the prepared cells, and the cells were disrupted by shaking once every 5 minutes for a total of 15 minutes. The disrupted cells were centrifuged at 13,000 rpm for 15 minutes to collect only the supernatant protein, and the obtained protein was quantified using a BCA protein quantification kit (Pierece, MA, USA), and a total of 15 μg of the protein was used for Western blotting. NE-PER Nuclear and Cytoplasmic Extraction Reagents (Thermoscientific, #78833) were used to separate cytoplasmic and nuclear proteins. […]

A further series deals with Na channel. In words: Whole cell patch clamp recording, Na channel current in A2780-SP cells. It is filed as cell-based. As to conditions: 10 μM, 5 minutes. A general note: In patch-clamp work, channel activity is measured electrically.
Series [3] is described as follows: A2780-SP xenograft model, change in body weight. It is filed as in vivo. Particulars: 3 mg/kg, intraperitoneal, nude mouse. How it is done: (§1) In order to confirm the inhibitory effect of the pharmaceutical composition of Examples of the present invention in the ovarian cancer stem cell tumor model, each nude mouse was subcutaneously inoculated with 2×10^6 A2780-SP (ovarian cancer stem cell line) cells. After the implantation, the size of tumor formation was measured using a caliper. When the tumor volume became 100 mm^3 or more, the experimental group was divided into the control group (vehicle) and the pharmaceutical composition of Examples of the present invention treated group (3 mg/kg of trimebutine) and the drug was administered to confirm the effect of the drug. The drug was administered […] through intraperitoneal administration, and the size of the tumor and the weight of the mouse were measured at intervals of 3 to 4 days. Then, all mice were euthanized on the day of the end of the experiment, and finally the size of the tumor and the weight were measured.
(§2) In order to confirm the ovarian cancer treatment effect of the pharmaceutical composition containing trimebutine of the present invention in vivo, an animal model experiment was performed. The specific experimental method is the same as the animal experiment method described in Experimental Protocol 5.

For the next series, the system named is L-type Ca channel. In words: Whole cell patch clamp recording, Ca channel current in A2780-SP cells. It counts as cell-based. As to conditions: 10 μM, 5 minutes.
The test system of a further series is ALDH, OCT4 and SOX2. In words: Western blotting of markers related to cancer stemness in A2780-SP cells. It is filed as cell-based. As to conditions: 1 μM or 10 μM. How it is done: A2780-SP cells (ovarian cancer stem cells) were plated in an ultra-low attachment 6-well plate (Corning) at the density of 4×10^5 viable cells per well and cultured in a cancer stem cell medium. On the next day of culture, the medium was replaced with NBM (Neuro Basal Medium), and the cells were cultured for 16 hours in starvation. Then, the cells were treated with the compound of Example 1 at the concentration of 1 μM or 10 μM for 1 hour. The medium was replaced with a cancer stem cell medium containing the compound, and the cells were collected and cultured for an additional 30 minutes before being lysed in RiPA buffer. The extracted protein was separated by SDS-PAGE gel and transferred to a PVDF membrane for Western blotting. […]
Signals were developed on an enhanced chemiluminescence HRP substrate (Bio-Rad) and detected using LAS-3000 mini (Fuji film). The signals were quantified using Image J software (NIH Image).
In order to confirm the anticancer effect through the changes in the expressions of the markers related to sternness and the proteins related to survival and proliferation of cancer stem cells according to the treatment of the pharmaceutical composition containing trimebutine of the present invention, the expression levels of various factors were analyzed by Western blotting. […]
Background: In western blotting, separated proteins are transferred to a membrane and probed.

In another series the test system is A2780-SP xenograft. In words: A2780-SP xenograft model, tumor formation. As to conditions: 3 mg/kg, intraperitoneal, nude mouse. It counts as in vivo. The protocol: as §1, §2
The next series addresses T1, BKCa channel (Homo sapiens, UniProt Q12791).
T1 construct: K^+ current of the BK channel was measured by increasing the membrane voltage by 10 mV starting at −80 mV; endogenous in cells; host or cells: A2780-SP (ovarian cancer stem cells)
Nature of the series: Whole cell patch clamp recording, BKCa channel current in A2780-SP cells. It is filed as cell-based. As to conditions: 10 μM, 5 minutes.

T1 sequence (Q12791 whole entry): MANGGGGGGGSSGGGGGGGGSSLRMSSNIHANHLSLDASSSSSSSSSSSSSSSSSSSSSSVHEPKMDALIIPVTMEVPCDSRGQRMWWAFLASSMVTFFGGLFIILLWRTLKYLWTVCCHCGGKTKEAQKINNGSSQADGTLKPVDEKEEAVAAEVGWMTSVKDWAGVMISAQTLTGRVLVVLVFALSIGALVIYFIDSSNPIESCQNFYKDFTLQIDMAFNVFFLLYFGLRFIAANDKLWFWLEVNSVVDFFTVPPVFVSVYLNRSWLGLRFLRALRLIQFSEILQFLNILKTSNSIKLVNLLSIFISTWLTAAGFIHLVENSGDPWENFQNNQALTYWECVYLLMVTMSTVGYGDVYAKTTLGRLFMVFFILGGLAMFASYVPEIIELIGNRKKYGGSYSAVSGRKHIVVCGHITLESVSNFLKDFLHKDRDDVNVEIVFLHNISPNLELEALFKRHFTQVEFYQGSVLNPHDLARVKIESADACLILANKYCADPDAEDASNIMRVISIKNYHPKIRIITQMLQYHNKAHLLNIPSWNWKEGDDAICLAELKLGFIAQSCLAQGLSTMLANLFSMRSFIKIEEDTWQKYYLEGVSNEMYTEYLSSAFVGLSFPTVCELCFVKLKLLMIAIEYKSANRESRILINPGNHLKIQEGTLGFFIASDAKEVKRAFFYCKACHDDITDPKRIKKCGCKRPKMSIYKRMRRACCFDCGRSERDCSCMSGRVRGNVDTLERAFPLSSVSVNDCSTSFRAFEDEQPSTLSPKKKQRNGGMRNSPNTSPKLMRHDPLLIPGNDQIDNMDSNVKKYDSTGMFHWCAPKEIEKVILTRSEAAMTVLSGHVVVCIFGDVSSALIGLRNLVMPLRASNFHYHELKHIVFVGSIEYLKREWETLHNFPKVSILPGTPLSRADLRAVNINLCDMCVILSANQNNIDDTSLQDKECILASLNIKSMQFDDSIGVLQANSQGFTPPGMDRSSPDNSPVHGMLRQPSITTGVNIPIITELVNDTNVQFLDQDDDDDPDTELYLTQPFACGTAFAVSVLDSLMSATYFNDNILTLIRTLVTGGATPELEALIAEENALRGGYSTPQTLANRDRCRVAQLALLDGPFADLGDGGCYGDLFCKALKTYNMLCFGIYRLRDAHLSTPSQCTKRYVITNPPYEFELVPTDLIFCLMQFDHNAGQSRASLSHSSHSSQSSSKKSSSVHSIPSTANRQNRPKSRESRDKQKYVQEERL

`COC(=O)C1=C(C)NC(C)=C(C(=O)O[C@@H]2CCCN(Cc3ccccc3)C2)[C@@H]1c1cccc([N+](=O)[O-])c1` (racemic) [Comparative Example 1 (benidipine), Benidipine] displayed a GI50 in series [1] of 2.65 µM.
In [1], `CCOC(=O)C1=C(C)NC(C)=C(C(=O)OCC)C1c1ccccc1/C=C/C(=O)OC(C)(C)C` [Comparative Example 1 (lacidipine), Lacidipine] showed a GI50 of 2.9 µM.
As to `COc1ccc(CN2CCN(C(c3ccc(F)cc3)c3ccc(F)cc3)CC2)c(OC)c1OC` [Comparative Example 1 (lomerizine), Lomerizine], the GI50 in series [1] was found to be 2.95 µM. This GI50 and that of the compound before are within 1.5-fold of each other.
`COC(=O)C1=C(C)NC(C)=C(C(=O)OCCN2CCN(C(c3ccccc3)c3ccccc3)CC2)C1c1cccc([N+](=O)[O-])c1` (centres unmarked) [Comparative Example 1 (manidipine), Manidipine]: the 50% growth inhibitory concentration (GI50) was roughly 9.67 µM in series [2] and 2.7 µM in series [1].
For the compound `CCC(COC(=O)c1cc(OC)c(OC)c(OC)c1)(c1ccccc1)N(C)C` (centres unmarked) [Example 1, Trimebutine], in the series with β-catenin, the “degree of β-catenin S552 phosphorylation” value is on record as “reduced” and the “translocation of β-catenin into the nucleus” value was “reduced”. Also, in the series on Na channel, the “amplitude of Na current” value is “remarkably suppressed”. For the same compound, the “change in body weight” value in series [3] is “no change in body weight”. For the same compound, the “amplitude of Ca current” value in the series with L-type Ca channel is listed as “remarkably suppressed”. Moreover, in [1], the “viability of A2780-SP cells (ovarian cancer stem cells), result in words” value is “reduced the viability” and halving of growth (GI50) required 0.401 µM. For the same compound, the “viability of A2780-SP cells (ovarian cancer stem cells), result in words” value in series [1] (listed as trimebutine) is on record as “excellent effect of inhibiting the survival of ovarian cancer stem cells”. The “selectivity for cancer stem cells rather than cancer cells” value in series [1] (A2780-SP versus A2780, FIGS. 1F and 1G compared with FIGS. 1A to 1E) is reported as “excellent selectivity”. The “expressions of ALDH, OCT4 and SOX2, the markers related to cancer stemness” value in the series with ALDH, OCT4 and SOX2 is “reduced”. Also, the tumor formation result with A2780-SP xenograft was “specifically inhibited tumor formation”. Further, the “amplitude of BKCa current” value at BKCa channel is “remarkably suppressed”.
